From patent US20230242513A1, “NOVEL HETEROARYL-SUBSTITUTED PYRAZINE DERIVATIVES AS PESTICIDES” (Bayer Animal Health GmbH, priority 2020, published 2023)

Tests used:
Type in all cases: in vivo
[1] = tested on: Rhipicephalus (Boophilus) microplus larvae (strain Parkhurst, resistant against synthetic pyrethroids); assay: Rhipicephalus (Boophilus) microplus in-vitro contact test, larval cattle tick; details: application rate 5 μg/cm^2 (=500 g/ha); after 48 hours
Procedure: Rhipicephalus (Boophilus) microplus—In-Vitro Contact Tests Larval Cattle Tick (Strain Parkhurst, Resistant Against Synthetic Pyrethroids)
(§1) 9 mg compound is solved in 1 mL acetone and diluted with acetone to the desired concentration. 250 μL of the test solution is filled in 25 mL glass test tubes and homogeneously distributed on the inner walls by rotation and tilting on a shaking device (2 h at 30 rpm). With a compound concentration of 900 ppm, an inner surface of 44.7 cm^2 and a homogeneous distribution, a dose of 5 pg/cm^2 is achieved.
After the solvent has evaporated, each test tube is filled with 20-50 cattle tick larvae (Rhipicephalus microplus), closed with a perforated lid and incubated in a horizontal position at 85% relative humidity and 27° C. in an incubator. After 48 hours efficacy is determined. The larvae are patted on the ground of the tubes and negative geotactic behavior is recorded.
An efficacy of 100% means all larvae are dead or moribund; 0% means no larvae are dead or moribund.

[2] = tested on: Rhipicephalus sanguineus (adult brown dog ticks); assay: Rhipicephalus sanguineus in-vitro contact test, adult brown dog ticks; details: after 48 hours
Procedure: Rhipicephalus sanguineus—In-Vitro Contact Tests with Adult Brown Dog Ticks
as §1, with “μg/cm^2” for “pg/cm^2”
(§2) After the solvent has evaporated, each test tube is filled with 5-10 adult brown dog ticks (Rhipicephalus sanguineus), closed with a perforated lid and incubated in a lying position at room temperature and relative humidity. After 48 hours efficacy is determined. The ticks are patted on the ground of the tubes and are incubated on a heating plate at 45-50° C. for at most 5 minutes. Immotile or uncoordinated moving ticks, which are not able to escape the heat by climbing upwards, are marked as dead or moribund.
An efficacy of 100% means all ticks are dead or moribund; 0% means no ticks are dead or moribund.

[3] = tested on: Diabrotica balteata (banded cucumber beetle larvae); assay: Diabrotica balteata spray test; details: 168 h, wheat seeds, after 7 days, read-out: efficacy (seedlings grown up like untreated, uninfected control); for pest or weed control at 32 µg/disc, 100 g/ha: application rate 100 g/ha (=32 μg/well); for pest or weed control at 160 µg/disc, 500 g/ha: application rate 500 g/ha (=160 μg/well)
Procedure: Diabrotica balteata—Spray Test
(§3) Solvent: 78.0 parts by weight of acetone • • 1.5 parts by weight of dimethylformamide
(§4) Emulsifier: alkylarylpolyglycol ether
(§5) To produce a suitable preparation of active compound, 1 part by weight of active compound is mixed with the stated amount of solvent, and the concentrate is diluted with water, containing an emulsifier concentration of 1000 ppm, to the desired concentration. Further test concentrations are prepared by dilution with emulsifier containing water.
Soaked wheat seeds (Triticum aestivum) are placed in a multiple well plate filled with agar and some water and are incubated for 1 day to germinate (5 seeds per well). The germinated wheat seeds are sprayed with a test solution containing the desired concentration of the active ingredient. Afterwards each unit is infected with 10-20 larvae of the banded cucumber beetle (Diabrotica balteata).
After 7 days efficacy in % is determined. 100% means all the seedlings have grown up like in the untreated, uninfected control; 0% means none of the seedlings have grown.

[4] = tested on: Myzus persicae (green peach aphid); assay: Myzus persicae oral test; details: 120 h, application rate 20 ppm, after 5 days
Procedure: Solvent: 100 parts by weight acetone
To produce a suitable preparation of active compound, 1 part by weight of active compound is mixed with the stated amount of solvent, and the concentrate is diluted with water to the desired concentration.
50 μL compound solution is filled in microtiter plates and 150 μL IPL41 insect medium (33%+15% sugar) is added to obtain a total volume of 200 μL per well. Afterwards the plates are sealed with parafilm through which a mixed population of the green peach aphid (Myzus persicae) can suck on the compound preparation.
After 5 days mortality in % is determined. 100% means all aphids have been killed and 0% means none of the aphids have been killed.

[5] = tested on: Nezara viridula (southern green stink bug larvae); assay: Nezara viridula spray test; details: 96 h, application rate 500 g/ha, barley plants, after 4 days
Procedure: Nezara viridula—Spray Test
as §3, §4, §5
Barley plants (Hordeum vulgare) are sprayed with a test solution containing the desired concentration of the active ingredient and are infested with larvae of the southern green stink bug (Nezara viridula).
After 4 days mortality in % is determined. 100% means all the stink bugs have been killed; 0% means none of the stink bugs have been killed.

[6] = tested on: Nilaparvata lugens (brown planthopper); assay: Nilaparvata lugens spray test; details: 96 h, application rate 500 g/ha, rice plants, after 4 days
Procedure: Nilaparvata lugens—Spray Test
as §3, §4
as §5, with “solvents” for “solvent,”, “and” for “and the concentrate”
Rice plants (Oryza sativa) are sprayed with a preparation of the active ingredient of the desired concentration and the plants are infested with the brown planthopper (Nilaparvata lugens).
After 4 days mortality in % is determined. 100% means all planthoppers have been killed and 0% means none of the planthoppers have been killed.

[7] = tested on: Spodoptera frugiperda (fall armyworm larvae); assay: Spodoptera frugiperda spray test; details: in Zea mays, 168 h
Procedure: Spodoptera frugiperda—Spray Test
Solvent: 78.0 parts by weight acetone • 1.5 parts by weight dimethylformamide
as §4
as §5, with “solvents” for “solvent,”, “and” for “and the concentrate”
Maize (Zea mays) leaf sections are sprayed with a preparation of the active ingredient of the desired concentration. Once dry, the leaf sections are infested with fall armyworm larvae (Spodoptera frugiperda).
After 7 days mortality in % is determined. 100% means all caterpillars have been killed and 0% means none of the caterpillars have been killed.

[8] = tested on: Ctenocephalides felis (adult cat fleas); assay: Ctenocephalides felis in-vitro contact test, adult cat flea; details: after 48 hours
Procedure: Ctenocephalides felis—In-Vitro Contact Tests Adult Cat Flea
as §1, with “μg/cm^2” for “pg/cm^2”
as §2, with “cat fleas (Ctenocephalides felis),” for “brown dog ticks (Rhipicephalus sanguineus),”, “fleas” for “ticks”, “fleas,” for “ticks,”
An efficacy of 100% means all fleas are dead or moribund; 0% means no fleas are dead or moribund.

[9] = application rate 5 μg/cm^2 (=500 g/ha)
[10] = application rate 1 μg/cm^2 (=100 g/ha)

CC(NC(=O)c1cc(Cl)cc(S(C)(=O)=O)c1)c1nccnc1-n1nccn1 (racemic) [Example I-1, (rac)-3-Chloro-5-(methylsulfonyl)-N-{1-[3-(2H-1,2,3-triazol-2-yl)pyrazin-2-yl]ethyl}benzamide]
efficacy (larvae dead or moribund) [1]: 90%
efficacy (ticks dead or moribund) [2, 9]: 100%
pest or weed control at 32 µg/disc, 100 g/ha [3]: 100%
pest or weed control at 160 µg/disc, 500 g/ha [3]: 100%
mortality at 20 ppm [4]: 100%
mortality at 500 g/ha [5]: 100%

Cc1ncn(-c2nccnc2C(C)NC(=O)c2cc(Br)cc(Br)c2)n1 (racemic) [Example I-2, 3,5-Dibromo-N-{(rac)-1-[3-(3-methyl-1H-1,2,4-triazol-1-yl)pyrazin-2-yl]ethyl}benzamide]
pest or weed control at 32 µg/disc, 100 g/ha [3]: 100%

Cc1ncn(-c2nccnc2C(C)NC(=O)c2cc(C(F)(F)F)cc(C(F)(F)F)c2)n1 (racemic) [Example I-3, (rac)-N-{1-[3-(3-Methyl-1H-1,2,4-triazol-1-yl)pyrazin-2-yl]ethyl}-3,5-bis(trifluoromethyl)benzamide]
mortality at 500 g/ha [6]: 90%
mortality at 100 g/ha [7]: 100%

Cc1ncn(-c2nccnc2C(C)NC(=O)c2cc(Cl)cc(S(C)(=O)=O)c2)n1 (racemic) [Example I-4, (rac)-3-Chloro-5-(methanesulfonyl)-N-{1-[3-(3-methyl-1H-1,2,4-triazol-1-yl)pyrazin-2-yl]ethyl}benzamide]
pest or weed control at 32 µg/disc, 100 g/ha [3]: 100%
mortality at 500 g/ha [5]: 70%

CC(NC(=O)c1cc(C(F)(F)F)cc(C(F)(F)F)c1)c1nccnc1-n1cncn1 (racemic) [Example I-5, (rac)-N-(1-[3-(1H-1,2,4-Triazol-1-yl)pyrazin-2-yl]ethyl)-3,5-bis(trifluoromethyl)benzamide]
pest or weed control at 32 µg/disc, 100 g/ha [3]: 100%
mortality at 500 g/ha [6]: 100%
mortality at 20 g/ha [7]: 83%

CC(NC(=O)c1cc(Cl)cc(S(C)(=O)=O)c1)c1nccnc1-n1cncn1 (racemic) [Example I-6, (rac)-3-Chloro-5-(methanesulfonyl)-N-{1-[3-(1H-1,2,4-triazol-1-yl)pyrazin-2-yl]ethyl}benzamide]
pest or weed control at 32 µg/disc, 100 g/ha [3]: 100%
mortality at 500 g/ha [5]: 90%
mortality at 500 g/ha [6]: 100%

CC(NC(=O)c1cc(Br)cc(Br)c1)c1nccnc1-n1cncn1 (racemic) [Example I-7, (rac)-3,5-Dibromo-N-{1-[3-(1H-1,2,4-triazol-1-yl)pyrazin-2-yl]ethyl}benzamide]
pest or weed control at 32 µg/disc, 100 g/ha [3]: 100%

Cc1ncn(-c2nccnc2C(C)NC(=O)c2cc(Cl)cc(OC(F)(F)F)c2)n1 (racemic) [Example I-9, (rac)-3-Chloro-N-{1-[3-(3-methyl-1H-1,2,4-triazol-1-yl)pyrazin-2-yl]ethyl}-5-(trifluoromethoxy)benzamide]
pest or weed control at 32 µg/disc, 100 g/ha [3]: 100%
mortality at 100 g/ha [7]: 100%

CC(NC(=O)c1cc(C(F)(F)F)cc(C(F)(F)F)c1)c1nccnc1-c1cn(C)nn1 (racemic) [Example I-10, (rac)-N-{1-[3-(1-Methyl-1H-1,2,3-triazol-4-yl)pyrazin-2-yl]ethyl}-3,5-bis(trifluoromethyl)benz amide]
efficacy (larvae dead or moribund) [1]: 100%
pest or weed control at 32 µg/disc, 100 g/ha [3]: 100%

CC(NC(=O)c1cc(Cl)cc(OC(F)(F)F)c1)c1nccnc1-c1cn(C)nn1 (racemic) [Example I-11, (rac)-3-Chloro-N-{1-[3-(1-methyl-1H-1,2,3-triazol-4-yl)pyrazin-2-yl]ethyl}-5-(trifluoromethoxy)benzamide]
pest or weed control at 32 µg/disc, 100 g/ha [3]: 100%

CC(NC(=O)c1cc(C(F)(F)F)cc(C(F)(F)F)c1)c1nccnc1-c1cn(-c2ccn(C)n2)nn1 (racemic) [Example I-12, (rac)-N-1-{3-[1-(1-Methyl-1H-pyrazol-3-yl)-1H-1,2,3-triazol-4-yl]pyrazin-2-yl}ethyl]-3,5-bis(trifluoromethyl)benzamide]
efficacy (larvae dead or moribund) [1]: 90%
mortality at 100 g/ha [7]: 100%

CC(NC(=O)c1cc(Br)cc(Br)c1)c1nccnc1-c1cn(C)nn1 (racemic) [Example I-15, (rac)-3,5-Dibromo-N-{1-[3-(1-methyl-1H-1,2,3-triazol-4-yl)pyrazin-2-yl]ethyl}benzamide]
pest or weed control at 32 µg/disc, 100 g/ha [3]: 100%

CCN(C)C(=O)c1ncn(-c2nccnc2C(C)NC(=O)c2cc(C(F)(F)F)cc(C(F)(F)F)c2)n1 (racemic) [Example I-21, (rac)-1-(3-{1-[3,5-Bis(trifluoromethyl)benzamido]ethyl}pyrazin-2-yl)-N-ethyl-N-methyl-1H-1,2,4-triazole-3-carboxamide]
efficacy (larvae dead or moribund) [1]: 100%
efficacy (fleas dead or moribund) [8, 10]: 80%
efficacy (ticks dead or moribund) [2, 10]: 80%

CCN(C)C(=O)c1ncn(-c2nccnc2C(C)NC(=O)c2cc(Cl)cc(S(C)(=O)=O)c2)n1 (racemic) [Example I-25, (rac)-1-(3-{1-[3-Chloro-5-(methanesulfonyl)benzamido]ethyl}pyrazin-2-yl)-N-ethyl-N-methyl-1H-1,2,4-triazole-3-carboxamide]
mortality at 100 g/ha [7]: 100%

CC(NC(=O)c1cc(C(F)(F)F)cc(C(F)(F)F)c1)c1nccnc1-n1cnc(C#N)n1 (racemic) [Example I-27, (rac)-N-{1-[3-(3-Cyano-1H-1,2,4-triazol-1-yl)pyrazin-2-yl]ethyl}-3,5-bis(trifluoromethyl)benzamide]
efficacy (larvae dead or moribund) [1]: 100%

CCOC(=O)Cn1cc(-c2nccnc2C(C)NC(=O)c2cc(C(F)(F)F)cc(C(F)(F)F)c2)nn1 (racemic) [Example I-28, (rac)-Ethyl [4-(3-{1-[3,5-bis(trifluoromethyl)benzamido]ethyl}pyrazin-2-yl)-1H-1,2,3-triazol-1-yl]acetate]
efficacy (larvae dead or moribund) [1]: 100%
efficacy (fleas dead or moribund) [8, 9]: 100%
pest or weed control at 160 µg/disc, 500 g/ha [3]: 100%
